# Results: publication PMC9977398, “Next-generation membrane-active glycopeptide antibiotics that also inhibit bacterial cell division” (Chemical Science, 2023)
# Where two headings read alike, the source gives them in different places.
# Columns and labels:
# [1] = system: AB 1425 (A. baumannii MTCC 1425); assay: MIC determination, micro-dilution broth; assay type: cell-based; details: Acinetobacter baumannii, MTCC1425; read-out: Minimum inhibitory concentration, AB 1425
# Procedure: (§1) The increase in the carbon content of substituted moieties from six (1) to seven (2 and 3) to ten (5) to twelve (4), increased activity. […]
# (§2) Test compound was assayed in a micro -dilution broth format as per the CLSI guideline. The bacterial freeze dried stock samples were stored at -80 °C. About 5 μL of these stocks were added to 3 mL of the respective broth and the culture was grown for 6 h at 37°C with prior to the experiments. This 6 h grown culture was diluted to give effective cell concentration of 10 5 CFU/mL which was then used for determining MIC. Compounds were serially diluted 2 -fold, in sterile millipore water and 50 μL of these serial dilutions were added to the wells of 96 well plate followed by the addition of about 150 μL of bacterial solution. The plates were then incubated for 18-24 h at 37 °C. The O.D. value at 600 nm was recorded using TECAN (Infinite series, M200 pro) Plate Reade r. Each concentration had triplicate values and the whole experiment was done at least twice and the MIC value was determined by taking the average of triplicate O. D. values for each concentration and plotting it against concentration. The data was then subjected to sigmoidal fitting. From the curve the MIC value was determined, as the point where the O. D. was similar to that of control having no bacteria.
# [2] = system: AB R674 (A. baumannii); assay: MIC determination, micro-dilution broth; assay type: cell-based; details: Acinetobacter baumannii; read-out: Minimum inhibitory concentration, AB R674
# Procedure: as §1, §2
# [3] = system: MRSA, methicillin-resistant S. aureus (ATCC 33591); assay: MIC determination, micro-dilution broth; assay type: cell-based; details: Staphylococcus aureus; MRSA ATCC 33591; read-out: Minimum inhibitory concentration, MRSA
# Procedure: as §1, §2
# [4] = system: PA R590 (MDR strain of P. aeruginosa); assay: MIC determination, micro-dilution broth; assay type: cell-based; details: Pseudomonas aeruginosa; read-out: Minimum inhibitory concentration, PA R590
# Procedure: as §1, §2
# [5] = system: VRE 51559 (vancomycin-resistant E. faecium, VanA phenotype, ATCC 51559); assay: MIC determination, micro-dilution broth; assay type: cell-based; details: Enterococcus; read-out: Minimum inhibitory concentration, VRE 51559
# Procedure: as §1, §2
# [6] = system: VRE 51575 (vancomycin-resistant E. faecalis, VanB phenotype, ATCC 51575); assay: MIC determination, micro-dilution broth; assay type: cell-based; details: Enterococcus; read-out: Minimum inhibitory concentration, VRE 51575
# Procedure: as §1, §2
# [7] = system: VRSA 1 (vancomycin-resistant S. aureus); assay: MIC determination, micro-dilution broth; assay type: cell-based; details: Staphylococcus aureus, read-out: Minimum inhibitory concentration, VRSA 1
# Procedure: as §1, §2
# [8] = system: VRSA 12 (vancomycin-resistant S. aureus); assay: MIC determination, micro-dilution broth; assay type: cell-based; details: Staphylococcus aureus, read-out: Minimum inhibitory concentration, VRSA 12
# Procedure: as §1, §2
# [9] = system: VRSA 4 (vancomycin-resistant S. aureus); assay: MIC determination, micro-dilution broth; assay type: cell-based; details: Staphylococcus aureus, read-out: Minimum inhibitory concentration, VRSA 4
# Procedure: as §1, §2
# [10] = system: human erythrocytes; assay: Haemolysis assay; assay type: cell-based
# Procedure: To select the lead compounds, the toxicity of 1–10 was tested against human erythrocytes as their hemolytic activity (HC50). The HC50 is determined as the concentration at which 50% of the compound treated cells are lysed. […] The HC50 for compounds 6–8 was also greater than 500 μM. […] Based on the in vitro activity and hemolysis studies, VanQbiph (4) from the aryl-substituted compounds and VanQAmC10 (8) from the alkyl-chain substituted compounds were selected for further investigations. […] VanQAmC10 (8) was additionally non-toxic to RAW 264.7 cells up to 40 μM and was therefore taken forward in vivo investigation.[18]
# 50 μL of serially diluted compound was added into 96 well microtiter plates. Freshly drawn, heparanized human blood was centrifuged down to obtain the erythrocytes and re-suspended to 5 vol % in PBS (pH 7.4). 150 μL of the erythrocyte suspension was added to the serially diluted compounds (from 500 µM to 2 µM). One set without compound and other with 50 μL of 1 vol % solution of Triton X-100 were kept as controls. The plates were incubated at 37 °C for 1 h followed by centrifugation at 3,500 rpm for 5 min. 100 μL of the supernatant from each well were transferred into fresh microtiter plates, and A540 was measured.
# % haemolysis = (A - A0)/(Atotal -A0) × 100, where A is the absorbance of the test well, A 0 the absorbance of the negative controls (without compound), and A total the absorbance of 100 % hemolysis wells (with Triton X -100), all at 540 nm. […]
# [11] = system: VRE (VanA phenotype); set-up: method as in PMID 27663982, PMID 24846441, PMID 14972384; details: cited from earlier work
compound,measurement,setting,value
CNC(CC(C)C)C(=O)NC1C(=O)NC(CC(N)=O)C(=O)NC2C(=O)NC3C(=O)NC(C(=O)NC(C(=O)NCCC[N+](C)(C)Cc4ccc(C)cc4)c4cc(O)cc(O)c4-c4cc3ccc4O)C(O)c3ccc(c(Cl)c3)Oc3cc2cc(c3OC2OC(CO)C(O)C(O)C2OC2CC(C)(N)C(O)C(C)O2)Oc2ccc(cc2Cl)C1O (stereo not drawn) [VanQtol (2)],MIC,[1],> 30 µM
same,MIC,[2],25.3 µM
same,MIC,[3],1 µM
same,MIC,[4],> 30 µM
same,MIC,[5],> 30 µM
same,MIC,[6],> 30 µM
same,MIC,[7],> 30 µM
same,MIC,[8],> 30 µM
same,MIC,[9],16 µM
same,HC50,"[10]; human, 1 h, pH 7.4",>500 µM
CN[C@H]1C(=O)N[C@@H]2Cc3ccc(cc3)Oc3cc4cc(c3O[C@@H]3O[C@H](C(=O)O)[C@@H](O)[C@H](O)[C@H]3NC(=O)CCCCCCCCC(C)C)Oc3ccc(cc3Cl)[C@@H](O)[C@@H]3NC(=O)[C@H](NC(=O)[C@@H]4NC(=O)[C@@H](NC2=O)c2cc(cc(O)c2Cl)Oc2cc1ccc2O)c1ccc(O)c(c1)-c1c(O[C@H]2O[C@H](CO)[C@@H](O)[C@H](O)[C@@H]2O)cc(O)cc1[C@@H](C(=O)NCCCN(C)C)NC3=O [dalbavancin],MIC against VRE (VanA phenotype),[11],18 µM
CCCCCCCCCCCCNC(=O)C[N+](C)(C)CCCNC(=O)C1NC(=O)C2NC(=O)C(NC(=O)C3NC(=O)C(CC(N)=O)NC(=O)C(NC(=O)C(CC(C)C)NC)C(O)c4ccc(c(Cl)c4)Oc4cc3cc(c4OC3OC(CO)C(O)C(O)C3OC3CC(C)(N)C(O)C(C)O3)Oc3ccc(cc3Cl)C2O)c2ccc(O)c(c2)-c2c(O)cc(O)cc21 (stereo not drawn) [VanQAmC12 (9)],MIC,[1],6.3 µM
same,MIC,[2],6.3 µM
same,MIC,[3],3.12 µM
same,MIC,[4],6.3 µM
same,MIC,[5],1.5 µM
same,MIC,[6],3.1 µM
same,MIC,[7],1.5 µM
same,MIC,[8],3 µM
same,MIC,[9],0.7 µM
same,HC50,[10],caused hemolysis
same,HC50,"[10]; human, 1 h, pH 7.4",350 µM
CCCCCCCCNC(=O)C[N+](C)(C)CCCNC(=O)C1NC(=O)C2NC(=O)C(NC(=O)C3NC(=O)C(CC(N)=O)NC(=O)C(NC(=O)C(CC(C)C)NC)C(O)c4ccc(c(Cl)c4)Oc4cc3cc(c4OC3OC(CO)C(O)C(O)C3OC3CC(C)(N)C(O)C(C)O3)Oc3ccc(cc3Cl)C2O)c2ccc(O)c(c2)-c2c(O)cc(O)cc21 (stereo not drawn) [VanQAmC8 (7)],MIC,[1],12.5 µM
same,MIC,[2],12.5 µM
same,MIC,[3],0.8 µM
same,MIC,[4],6.3 µM
same,MIC,[5],12.5 µM
same,MIC,[6],25 µM
same,MIC,[7],3.1 µM
same,MIC,[8],> 30 µM
same,MIC,[9],3.1 µM
same,HC50,"[10]; human, 1 h, pH 7.4",>500 µM
CCCCCCNC(=O)C[N+](C)(C)CCCNC(=O)C1NC(=O)C2NC(=O)C(NC(=O)C3NC(=O)C(CC(N)=O)NC(=O)C(NC(=O)C(CC(C)C)NC)C(O)c4ccc(c(Cl)c4)Oc4cc3cc(c4OC3OC(CO)C(O)C(O)C3OC3CC(C)(N)C(O)C(C)O3)Oc3ccc(cc3Cl)C2O)c2ccc(O)c(c2)-c2c(O)cc(O)cc21 (stereo not drawn) [VanQAmC6 (6)],MIC,[1],25 µM
same,MIC,[2],12.5 µM
same,MIC,[3],0.8 µM
same,MIC,[4],12.5 µM
same,MIC,[5],25 µM
same,MIC,[6],> 30 µM
same,MIC,[7],> 30 µM
same,MIC,[8],> 30 µM
same,MIC,[9],6.3 µM
same,HC50,"[10]; human, 1 h, pH 7.4",>500 µM
